Test system: HOP-62 complex spheroids with HUVEC/MSC, viability
Assay: Anticancer human tumor HOP-62 cell line growth inhibition [RAS];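 further: spheroids exposed to agents for seven days before readout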;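 on viability, T/C: 100% = DMSO vehicle control viability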
Conditions: for IC50: curve of first compound; for viability, T/C: stronger effect = lower value
In short: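 Tumour cells grown as complex spheroids with HUVEC endothelial cells and mesenchymal stem cells, treated with RAS pathway inhibitor combinations. Each agent spans half-log steps from near clinical Cmax, or 10 microM where Cmax is unknown.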

[1] = second compound 0.000949 µM, first compound 0.0316 µM
[2] = second compound 0.000949 µM, first compound 0.1 µM
[3] = second compound 0.000949 µM, first compound 0.316 µM
[4] = second compound 0.000949 µM, first compound 1 µM
[5] = second compound 0.000949 µM, first compound 3.16 µM
[6] = second compound 0.000949 µM, first compound 10 µM
[7] = second compound 0.003 µM, first compound 0.0316 µM
[8] = second compound 0.003 µM, first compound 0.1 µM
[9] = second compound 0.003 µM, first compound 0.316 µM
[10] = second compound 0.003 µM, first compound 1 µM
[11] = second compound 0.003 µM, first compound 3.16 µM
[12] = second compound 0.003 µM, first compound 10 µM
[13] = second compound 0.00949 µM, first compound 0.0316 µM
[14] = second compound 0.00949 µM, first compound 0.1 µM
[15] = second compound 0.00949 µM, first compound 0.316 µM
[16] = second compound 0.00949 µM, first compound 1 µM
[17] = second compound 0.00949 µM, first compound 3.16 µM
[18] = second compound 0.00949 µM, first compound 10 µM
[19] = second compound 0.03 µM, first compound 0.0316 µM
[20] = second compound 0.03 µM, first compound 0.1 µM
[21] = second compound 0.03 µM, first compound 0.316 µM
[22] = second compound 0.03 µM, first compound 1 µM
[23] = second compound 0.03 µM, first compound 3.16 µM
[24] = second compound 0.03 µM, first compound 10 µM
[25] = second compound 0.0949 µM, first compound 0.0316 µM
[26] = second compound 0.0949 µM, first compound 0.1 µM
[27] = second compound 0.0949 µM, first compound 0.316 µM
[28] = second compound 0.0949 µM, first compound 1 µM
[29] = second compound 0.0949 µM, first compound 3.16 µM
[30] = second compound 0.0949 µM, first compound 10 µM
[31] = second compound 0.3 µM, first compound 0.0316 µM
[32] = second compound 0.3 µM, first compound 0.1 µM
[33] = second compound 0.3 µM, first compound 0.316 µM
[34] = second compound 0.3 µM, first compound 1 µM
[35] = second compound 0.3 µM, first compound 3.16 µM
[36] = second compound 0.3 µM, first compound 10 µM

In the case of `CC1(O)CCCC1n1c(=O)c(C(F)F)cc2cnc(NC3CCN(S(C)(=O)=O)CC3)nc21` (stereo unspecified) + CCn1c(-c2cccnc2C(C)OC)c2c3cc(ccc31)N1CCOC(CC(NC(=O)C(C(C)C)N(C)C(=O)C3(F)CCN(C(=O)C#CC(C)(C)N(C)C)CC3)C(=O)N3CCCC(N3)C(=O)OCC(C)(C)C2)C1, the IC50 (second compound 0.000949 µM) is reported as 4.84 µM, the IC50 (second compound 0.003 µM) is reported as 4.47 µM and the IC50 (second compound 0.00949 µM) is reported as 3.4 µM. The IC50 (second compound 0.03 µM) was 1.17 µM, the IC50 (second compound 0.0949 µM) was 1.63 µM and the IC50 (second compound 0.3 µM) was 0.777 µM. The viability, T/C [1] was 107%, the viability, T/C [2] was 87.9% and the viability, T/C [3] was 58%. For the same compound, the viability, T/C [4] was 86.6%, the viability, T/C [5] was 77.8% and the viability, T/C [6] was 2.45%. For the same compound, the viability, T/C [7] was 94.1%, the viability, T/C [8] was 65.2% and the viability, T/C [9] was 54.5%. The viability, T/C [10] was 67.6%, the viability, T/C [11] was 70.9% and the viability, T/C [12] was 2.8%. The viability, T/C [13] was 83%, the viability, T/C [14] was 59.1% and the viability, T/C [15] was 61%. It also gave a viability, T/C [16] of 60%, a viability, T/C [17] of 55.9% and a viability, T/C [18] of 2.82%. The viability, T/C [19] was 89.5%, the viability, T/C [20] was 80.2% and the viability, T/C [21] was 57.5%. For the same compound, the viability, T/C [22] was 60.5%, the viability, T/C [23] was 33% and the viability, T/C [24] was 2.88%. For the same compound, the viability, T/C [25] was 80.6%, the viability, T/C [26] was 67.1% and the viability, T/C [27] was 56.8%. The viability, T/C [28] was 59.7%, the viability, T/C [29] was 43.4% and the viability, T/C [30] was 2.21%. The viability, T/C [31] was 71.7%, the viability, T/C [32] was 63.1% and the viability, T/C [33] was 56.5%. For the same compound, the viability, T/C [34] was 51.9%, the viability, T/C [35] was 21.2% and the viability, T/C [36] was 2.92%.
`CCC(CC)c1cc(NC2CCC(N)C2)n2nccc2n1` (stereo unspecified) + CCn1c(-c2cccnc2C(C)OC)c2c3cc(ccc31)N1CCOC(CC(NC(=O)C(C(C)C)N(C)C(=O)C3(F)CCN(C(=O)C#CC(C)(C)N(C)C)CC3)C(=O)N3CCCC(N3)C(=O)OCC(C)(C)C2)C1 showed an IC50 (second compound 0.000949 µM) of 1.96 µM, an IC50 (second compound 0.003 µM) of 1.98 µM and an IC50 (second compound 0.00949 µM) of 1.86 µM. The IC50 (second compound 0.03 µM) was 1.84 µM, the IC50 (second compound 0.0949 µM) was 1.77 µM and the IC50 (second compound 0.3 µM) was 1.7 µM. The viability, T/C [1] was 126%, the viability, T/C [2] was 107% and the viability, T/C [3] was 96.3%. It also gave a viability, T/C [4] of 110%, a viability, T/C [5] of 6.83% and a viability, T/C [6] of 1.38%. For the same compound, the viability, T/C [7] was 116%, the viability, T/C [8] was 101% and the viability, T/C [9] was 109%. The viability, T/C [10] was 118%, the viability, T/C [11] was 7.77% and the viability, T/C [12] was 0.66%. It also gave a viability, T/C [13] of 91.4%, a viability, T/C [14] of 96.5% and a viability, T/C [15] of 101%. For the same compound, the viability, T/C [16] was 121%, the viability, T/C [17] was 5.15% and the viability, T/C [18] was 0.65%. For the same compound, the viability, T/C [19] was 98.5%, the viability, T/C [20] was 99.6% and the viability, T/C [21] was 100%. For the same compound, the viability, T/C [22] was 113%, the viability, T/C [23] was 2.86% and the viability, T/C [24] was 0.81%. The viability, T/C [25] was 91.7%, the viability, T/C [26] was 98.4% and the viability, T/C [27] was 96.9%. The viability, T/C [28] was 104%, the viability, T/C [29] was 1.59% and the viability, T/C [30] was 0.78%. The viability, T/C [31] was 82.5%, the viability, T/C [32] was 86.8% and the viability, T/C [33] was 95%. For the same compound, the viability, T/C [34] was 95%, the viability, T/C [35] was 3.22% and the viability, T/C [36] was 1.08%.
`CCN1CCN(Cc2ccc(Nc3ncc(F)c(-c4cc(F)c5nc(C)n(C(C)C)c5c4)n3)nc2)CC1` + CCn1c(-c2cccnc2C(C)OC)c2c3cc(ccc31)N1CCOC(CC(NC(=O)C(C(C)C)N(C)C(=O)C3(F)CCN(C(=O)C#CC(C)(C)N(C)C)CC3)C(=O)N3CCCC(N3)C(=O)OCC(C)(C)C2)C1 showed an IC50 (second compound 0.000949 µM) greater than 1 µM, an IC50 (second compound 0.003 µM) greater than 1 µM and an IC50 (second compound 0.00949 µM) greater than 1 µM. The IC50 (second compound 0.03 µM) was greater than 1 µM, the IC50 (second compound 0.0949 µM) was greater than 1 µM and the IC50 (second compound 0.3 µM) was greater than 1 µM. It also gave a viability, T/C (second compound 0.000949 µM, first compound 0.00316 µM) of 106%, a viability, T/C (second compound 0.000949 µM, first compound 0.01 µM) of 116% and a viability, T/C [1] of 86.5%. It also gave a viability, T/C [2] of 108%, a viability, T/C [3] of 107% and a viability, T/C [4] of 92.3%. It also gave a viability, T/C (second compound 0.003 µM, first compound 0.00316 µM) of 102%, a viability, T/C (second compound 0.003 µM, first compound 0.01 µM) of 99.7% and a viability, T/C [7] of 68.9%. The viability, T/C [8] was 97%, the viability, T/C [9] was 97.5% and the viability, T/C [10] was 76.8%. It also gave a viability, T/C (second compound 0.00949 µM, first compound 0.00316 µM) of 100%, a viability, T/C (second compound 0.00949 µM, first compound 0.01 µM) of 81.7% and a viability, T/C [13] of 84.2%. For the same compound, the viability, T/C [14] was 87.9%, the viability, T/C [15] was 88.6% and the viability, T/C [16] was 79.2%. The viability, T/C (second compound 0.03 µM, first compound 0.00316 µM) was 96.6%, the viability, T/C (second compound 0.03 µM, first compound 0.01 µM) was 86.7% and the viability, T/C [19] was 82.8%. It also gave a viability, T/C [20] of 85.3%, a viability, T/C [21] of 78.6% and a viability, T/C [22] of 89.5%. It also gave a viability, T/C (second compound 0.0949 µM, first compound 0.00316 µM) of 87.8%, a viability, T/C (second compound 0.0949 µM, first compound 0.01 µM) of 97.7% and a viability, T/C [25] of 79.7%. It also gave a viability, T/C [26] of 74.4%, a viability, T/C [27] of 68.3% and a viability, T/C [28] of 97.4%. It also gave a viability, T/C (second compound 0.3 µM, first compound 0.00316 µM) of 90.2%, a viability, T/C (second compound 0.3 µM, first compound 0.01 µM) of 78.9% and a viability, T/C [31] of 79.7%. It also gave a viability, T/C [32] of 70.2%, a viability, T/C [33] of 74.3% and a viability, T/C [34] of 91.4%.
